Measured values reported in patent US6608032B1, “Medicinal compositions” (Takara Shuzo Co., Ltd., priority 1999, dated 2003).
Where two headings read alike, the source gives them in different places.

Key:
[1] = test system: enzymes involved in the synthesis of prostaglandin E2 from arachidonic acid; assay: Prostaglandin E2 generation from arachidonic acid, sample added directly to crude enzyme fraction; type: biochemical; conditions: 1 μL of 100 mM agarobiose, 100 mM agarohexaose, 10 mM DGE or 13 mM nimesulide added to 100 μL crude enzyme fraction; FIG. 15
Description: 2.5 μL of 200 mM aqueous solution of glutathione, 2.5 μL of a suspension containing L-adrenaline at a concentration of 200 mM in water, and 1 μL of 100 mM aqueous solution of agarobiose, 100 mM aqueous solution of agarohexaose or 10 mM aqueous solution of DGE as a sample were added to 100 μL of the control sample from the crude enzyme fraction prepared in Example 15. 1 μL of water was added as a negative control. 1 μL of 13 mM nimesulide (Cayman, 70640) solution was added as a positive control. 1 μL of 3 mM arachidonic acid solution was then added to start the reaction. The mixture was reacted at 37° C. for 5 minutes. The reaction was stopped by heating at 100° C. for 2 minutes. The content of prostaglandin E2 in the reaction mixture was measured using Prostaglandin E2 ELISA Kit.

[2] = test system: HL-60 cells; assay: Proliferation of HL-60 cells with or without hydroxyurea G1 arrest, WST-1; type: cell-based; conditions: read-out: IC50 (concentration at which 50% of the proliferation is inhibited)
Description: HL-60 cells (ATCC CCL-240) were suspended in RPMI 1640 medium (Bio Whittaker, 12-702F) containing 10% fetal calf serum (Gibco) and […] at a concentration of 5×10^5 cells/ml. 20 ml of the suspension was added to a 10-cm Petri dish. The dish was incubated at 37° C. overnight in the presence of 5% CO2 to make the cells arrest at G1 phase. The cells were collected by centrifugation and resuspended in RPMI 1640 medium containing 10% fetal calf serum (Gibco) and 100 μM hydroxyurea at a concentration of 5×10^5 cells/ml. 5 ml of the suspension was added to each well of a 6-well microtiter plate. On the other hand, as cells without the treatment with hydroxyurea, HL-60 cells were suspended in RPMI 1640 medium containing 10% fetal calf serum (Gibco) at a concentration of 1×10^5 cells/ml. 5 ml of the suspension was added to each well of a 6-well microtiter plate. 50 μl of a solution containing agarobiose at a concentration of 80, 60, 40 or 20 mM in water, or 50 μl of a solution containing the agarohexaose at a concentration of 80, 60, 40 or 20 mM in water was added to the well containing the cells treated with hydroxyurea. 50 μl of a solution containing agarobiose at a concentration of 40, 30, 20 or 10 mM in water, or 50 μl of a solution containing agarohexaose at a concentration of 40, 30, 20 or 10 mM in water was added to the well containing the cells without the treatment with hydroxyurea. The plate was incubated for additional 48 hours. Cells collected by centrifuging the culture were suspended in 5 ml of fresh RPMI 1640 medium containing 10% fetal calf serum (Gibco). 100 μl of the suspension was used for measuring the viable cell number using Premix WST-1 Cell Proliferation Assay System (Takara Shuzo, MK400).

`OC[C@H]1O[C@@H](O[C@H]2[C@H]3OC[C@@H]2OC(O)[C@H]3O)[C@H](O)[C@@H](O)[C@H]1O` (mixture of isomers) [Agarobiose, agarobiose] was tested. Which “production of prostaglandin E2 from arachidonic acid” value [1] did it give?
The value was “not suppressed”.

What about the IC50 ([2]; Cells treated with hydroxyurea (arrested at G1 phase), 48 hours) of the same molecule?
The IC50 was 401 µM.

What about the IC50 ([2]; Cells without treatment with hydroxyurea, 48 hours) of the same molecule?
Its IC50 is 211 µM.

How did the “production of prostaglandin E2 from arachidonic acid” value [1] turn out when `OCC1OC(OC2C3COC2C(O)C(OC2C(O)C(CO)OC(OC4C5COC4C(O)C(OC4C(O)C(CO)OC(OC6C7COC6C(O)C(O)O7)C4O)O5)C2O)O3)C(O)C(O)C1O` (stereo not drawn) [Agarohexaose, agarohexaose] was run?
Its value is “not suppressed”.

What about the IC50 ([2]; Homo sapiens, HL-60, 48 h, Cells treated with hydroxyurea (arrested at G1 phase)) of the same molecule?
The IC50 was 383 µM.

What about the IC50 ([2]; Homo sapiens, HL-60, 48 h, Cells without treatment with hydroxyurea) of the same molecule?
Its IC50 is 205 µM.
